The text below walks through data of patent US6362188B1, “Farnesyl protein transferase inhibitors” (Schering Corporation, priority 1998, dated 2002).

By IC50 is commonly meant the midpoint of a concentration-inhibition curve. Higher therefore signals lower potency. The melting point is the temperature of the solid-liquid transition.

Data set [1] has as its system Human tumor cells. Briefly: Soft Agar Assay (anchorage-independent growth). The class given is cell-based. Particulars: colony outgrowth in soft agar, stated as a range for the group. As to the method: Anchorage-independent growth is a characteristic of tumorigenic cell lines. Human tumor cells can be suspended in growth medium containing 0.3% agarose and an indicated concentration of a farnesyl transferase inhibitor. The solution can be overlayed onto growth medium solidified with 0.6% agarose containing the same concentration of farnesyl transferase inhibitor as the top layer. After the top layer is solidified, plates can be incubated for 10-16 days at 37° C. under 5% CO2 to allow colony outgrowth. After incubation, the colonies can be stained by overlaying the agar with a solution of MTT (3-[4,5-dimethyl-thiazol-2-yl]-2,5-diphenyltetrazolium bromide, Thiazolyl blue) (1 mg/mL in PBS). Colonies can be counted and the IC50's can be determined.

In turn, `Cc1cn(C[C@@H]2CCCN(C(=O)[C@H]3CN([C@@H]4c5ccc(Cl)cc5CCc5ccc[n+]([O-])c54)CCN3C(=O)OC3CCCCC3)C2)cn1` [Example 388] registered a melting point of 108 to 113 °C. The IC50 in data set [1] was 0.05 to 30 nM.
`Cc1nccn1CC1CCCN(C(=O)C2CN(C3c4ccc(Cl)cc4CCc4cccnc43)CCN2C(=O)OC(C)C)C1` (single isomer, unassigned) [Example 38] gave a melting point of 92 to 101 °C. The IC50 in data set [1] was in the range of 0.5 to 30 nM.
Taken in the same sequence, the figures for `O=C(C1CN(C2c3ccc(Cl)cc3CCc3cccnc32)CCN1C(=O)OC1CCCCC1)N1CCCC(Oc2cccnc2)C1` (stereo not drawn) [47(U)] were 117 to 120 °C and 0.05 to 30 nM.
The matching figures for `Cc1cn(C[C@H]2CCCN(C(=O)[C@H]3CN([C@H]4c5ccc(Cl)cc5CCc5cc(Cl)cnc54)CCN3C(=O)OC3CCCCC3)C2)cn1` [Example 257]: 115 to 128 °C and 0.05 to 30 nM.
The matching figures for `CCc1cn(CC2CCCN(C(=O)C3CN(C4c5ccc(Cl)cc5CCc5cccnc54)CCN3C(=O)OC(C)(C)C)C2)cn1` (stereo not drawn) [35(A)]: 110 to 112 °C and 0.05 to 30 nM.
`Cc1nccn1CC1CCCN(C(=O)C2CN(C3c4ccc(Cl)cc4CCc4cccnc43)CCN2C(=O)OC2CCCCC2)C1` (single isomer, unassigned) [Example 44]: the melting point lay within 112 to 135 °C. The same compound had an IC50 in data set [1] of 0.5 to 30 nM.
The matching figures for `Cc1cn(CC2CCCN(C(=O)C3CN(C4c5ccc(Cl)cc5CCc5cc(F)cnc54)CCN3C(=O)OC3CCCCC3)C2)cn1` (stereo not drawn) [Example 287]: 116 to 123 °C and 0.05 to 30 nM.
The compound `Cc1cn(CC2CCCN(C(=O)C3CN(C4c5ccc(Cl)cc5CCc5cccnc54)CCN3C(=O)OC(C)(C)C)C2)cn1` (stereo not drawn) [Example 28] showed a melting point of 115 to 132 °C. For the same compound, the IC50 in data set [1] was 0.5 to 30 nM.
Turning to `Cc1cn(CC2CCCN(C(=O)C3CN(C4c5ccc(Cl)cc5CCc5cccnc54)CCN3C(=O)OC(C)C)C2)cn1` (stereo not drawn) [41(B)], the melting point fell in the range of 101 to 120 °C.
The same measure, in the same setting: next, `Cc1nccn1CC1CCCN(C(=O)C2CN(C3c4ccc(Cl)cc4CCc4cccnc43)CCN2C(=O)OC(C)C)C1` (single isomer, unassigned) [Example 39]: 111 to 125 °C; `CC(C)(C)OC(=O)N1CCN(C2c3ccc(Cl)cc3CCc3cccnc32)CC1C(=O)N1CCCC(Cn2ccnc2)C1` (stereo not drawn) [Example 25]: 124 to 143 °C.
On the same count and under the same terms, then `Cc1cn(CC2CCCN(C(=O)C3CN(C4c5ccc(Cl)cc5CCc5cc(Br)cnc54)CCN3C(=O)OC(C)(C)C)C2)cn1` (stereo not drawn) [Example 4.2], with 131 to 135 °C.
`Cc1cn(C[C@@H]2CCCN(C(=O)[C@H]3CN([C@H]4c5ccccc5CCc5cc(Cl)cnc54)CCN3C(=O)OC3CCCCC3)C2)cn1` [Example 319] showed a melting point of 114 to 118 °C. In data set [1], this compound displayed an IC50 of 0.05 to 30 nM.
The matching figures for `Cc1cn(C[C@@H]2CCCN(C(=O)[C@H]3CN([C@@H]4c5ccc(Cl)cc5CCc5cc(F)cnc54)CCN3C(=O)OC(C)(C)C)C2)cn1` [Example 260]: 110 to 116 °C and 0.05 to 30 nM.
In turn, `Cc1nccn1CC1CCCN(C(=O)C2CN(C3c4ccc(Cl)cc4CCc4cccnc43)CCN2C(=O)OC2CCCCC2)C1` (single isomer, unassigned) [Example 45] yielded a melting point of 108 to 123 °C.
On the same count and under the same terms, next, `Cc1nccn1CC1CCCN(C(=O)C2CN(C3c4ccc(Cl)cc4CCc4cccnc43)CCN2C(=O)OC2CCCCC2)C1` (single isomer, unassigned) [Example 46]: 91 to 94 °C.
The same measure, in the same setting: next, `Cc1nccn1CC1CCCN(C(=O)C2CN(C3c4ccc(Cl)cc4CCc4cccnc43)CCN2C(=O)OC2CCCCC2)C1` (single isomer, unassigned) [Example 47]: 100 to 106 °C; `Cc1cn(CC2CCCN(C(=O)C3CN(C4c5ccc(Cl)cc5CCc5cccnc54)CCN3C(=O)OC3CCCCC3)C2)cn1` (stereo not drawn) [Example 42]: 99 to 113 °C.
`Cc1cn(CC2CCCN(C(=O)C3CN(C4c5ccc(Cl)cc5CCc5cccnc54)CCN3C(=O)OC(C)C)C2)cn1` (stereo not drawn) [Example 37] returned a melting point of 95 to 111 °C.
Still for that read-out and setting: next, `Cc1cn(CC2CCCN(C(=O)C3CN(C4c5ccc(Cl)cc5CCc5cccnc54)CCN3C(=O)OC3CCCCC3)C2)cn1` (stereo not drawn) [Example 43]: 108 to 118 °C; `CS(=O)(=O)N1CCN(C2c3ccc(Cl)cc3CCc3cc(Br)cnc32)C[C@@H]1C(=O)N1CCC[C@@H]1Cn1ccnc1` (stereo partly drawn) [Example 22]: 135 to 141 °C.
Still for that read-out and setting: then `Cc1cn(C[C@@H]2CCCN(C(=O)[C@H]3CN(C4c5ccccc5CCc5ccccc54)CCN3C(=O)OC3CCCCC3)C2)cn1` [Example 414], with 98 to 112 °C; and `CC(C)(C)OC(=O)N1CCN(C2c3ccc(Cl)cc3CCc3cc(Br)cnc32)CC1C(=O)N1CCS(=O)(=O)C(Cn2ccnc2)C1` (stereo not drawn) [Example 8], with 179 to 182 °C; and `CCc1cn(CC2CCCN(C(=O)C3CN(C4c5ccc(Cl)cc5CCc5cccnc54)CCN3C(=O)OC(C)(C)C)C2)cn1` (stereo not drawn) [35(D)], with 79 to 81 °C.
On the same count and under the same terms, next, `Cc1nccn1CC1CCCN(C(=O)C2CN(C3c4ccc(Cl)cc4CCc4cccnc43)CCN2C(=O)OC(C)C)C1` (single isomer, unassigned) [Example 41]: 95 to 100 °C; `Cc1cn(CC2CCCN(C(=O)C3CN(C4c5ccccc5CCc5cc(Cl)cnc54)CCN3C(=O)OC(C)(C)C)C2)cn1` (single isomer, unassigned) [Example 293]: 110 to 123 °C.
`CC(C)(C)NC(=O)N1CCN(C2c3ccc(Cl)cc3CCc3cc(Br)cnc32)C[C@@H]1C(=O)N1CCC[C@@H]1Cn1ccnc1` (stereo partly drawn) [Example 21]: the melting point is 137 to 139 °C.
Same read-out and setting: then `CC(C)(C)NC(=O)N1CCN([C@@H]2c3ccc(Cl)cc3CCc3cc(Br)cnc32)C[C@@H]1C(=O)N1CCC[C@H](Cn2ccnc2)C1` [Example 18], with 112 to 120 °C; and `Cc1cn(CC2CCCN(C(=O)C3CN(C4c5ccc(Cl)cc5CCc5cccnc54)CCN3C(=O)OC3CCCCC3)C2)cn1` (stereo not drawn) [47(B)], with 133 to 139 °C; and `CC(C)OC(=O)N1CCN([C@@H]2c3ccc(Cl)cc3CCc3cc(Br)cnc32)C[C@@H]1C(=O)N1CCC[C@H](Cn2ccnc2)C1` [Example 19], with 123 to 132 °C.
Still for that read-out and setting: next, `CC(C)NC(=O)N1CCN([C@@H]2c3ccc(Cl)cc3CCc3cc(Br)cnc32)C[C@@H]1C(=O)N1CCC[C@@H](Cn2ccnc2)C1` [Example 17]: 132 to 136 °C; `Cc1cn(CC2CCCN(C(=O)C3CN(C4c5ccc(Cl)cc5CCc5cccnc54)CCN3C(=O)OC(C)C)C2)cn1` (stereo not drawn) [Example 36]: 123 to 132 °C.
The same measure, in the same setting: then `Cc1nccn1CC1CCCN(C(=O)C2CN(C3c4ccc(Cl)cc4CCc4cc(Br)cnc43)CCN2C(=O)OC(C)(C)C)C1` (stereo not drawn) [Example 4], with 128 to 133 °C; and `O=C([C@H]1CN(C2c3ccc(Cl)cc3CCc3cc(Cl)cnc32)CCN1C(=O)OC1CCCCC1)N1CCCC(Oc2cccnc2)C1` (stereo partly drawn) [Example 254A], with 105 to 113 °C.
For `Cc1cn(C[C@@H]2CCCN(C(=O)[C@H]3CN([C@H]4c5ccc(Cl)cc5CCc5cc(Br)cnc54)CCN3C(=O)OC(C)C)C2)cn1` [Example 170], the IC50 in data set [1] lay within 0.05 to 30 nM.
On to `Cc1[nH]cnc1CC1CN(C(=O)C2CN(C3c4ccc(Cl)cc4CCc4cc(Br)cnc43)CCN2C(=O)OC2CCCCC2)CCS1(=O)=O` (single isomer, unassigned) [Example 212], for which, in data set [1], the IC50 is 0.05 to 30 nM.
In turn, `CCc1cn(CC2CCCN(C(=O)C3CN(C4c5ccc(Cl)cc5CCc5cccnc54)CCN3C(=O)OC(C)(C)C)C2)cn1` (stereo not drawn) [35(C)] yielded a melting point of 104 to 106 °C.
In turn, `Cc1cn(C[C@H]2CCCN(C(=O)[C@H]3CN([C@H]4c5ccccc5CCc5cc(Cl)cnc54)CCN3C(=O)NC3CCCCC3)C2)cn1` [Example 318] yielded an IC50 in data set [1] of 0.05 to 30 nM.
`Cc1nccn1CC1CCCN(C(=O)C2CN(C3c4ccc(Cl)cc4CCc4cccnc43)CCN2C(=O)OC(C)C)C1` (single isomer, unassigned) [Example 40]: the melting point was 107 to 112 °C.
Consider `Cc1cn(CC2CCCN(C(=O)C3CN(C4c5ncccc5CCc5cccc(Cl)c54)CCN3C(=O)OC(C)(C)C)C2)cn1` (stereo not drawn) [Example 394], for which the IC50 in data set [1] is 0.05 to 30 nM.
The same measure, in the same setting: next, `Cc1cn(C[C@@H]2CCCN(C(=O)[C@H]3CN([C@@H]4c5ccc(Cl)cc5CCc5cc(Br)cnc54)CCN3C(=O)OCC(C)(C)C)C2)cn1` [Example 173]: 0.05 to 30 nM.
`Cc1ncn(CC2CCCN(C(=O)C3CN(C4c5ccc(Cl)cc5CCc5cccnc54)CCN3C(=O)OC3CCCCC3)C2)c1C` (single isomer, unassigned) [47(H)] yielded a melting point of 106 to 125 °C.
In data set [1], `Cc1cn(C[C@]2(O)CCCN(C(=O)[C@H]3CN([C@H]4c5ccc(Cl)cc5CCc5cccnc54)CCN3C(=O)OC3CCCCC3)C2)cn1` (stereo in doubt) [Example 419] gave an IC50 of 0.05 to 30 nM.
Still for that read-out and setting: then `CCc1nccn1CC1CCCN(C(=O)C2CN(C3c4ccc(Cl)cc4CCc4cccnc43)CCN2C(=O)OC(C)(C)C)C1` (stereo not drawn) [Example 34], with 0.5 to 30 nM.
The compound `Cc1cn(CC2CCCN(C(=O)C3CN(C4c5ccc(Cl)cc5CCc5cccnc54)CCN3C(=O)OC3CCCCC3)C2)cn1` (stereo not drawn) [47(A)] came in with a melting point of 122 to 127 °C.
`Cc1nc(C)n(CC2CCCN(C(=O)C3CN(C4c5ccc(Cl)cc5CCc5cc(Br)cnc54)CCN3C(=O)OC(C)(C)C)C2)c1C` (stereo not drawn) [Example 158] registered an IC50 in data set [1] of 0.05 to 30 nM.
In turn, `Cc1cn(CC2CCCN(C(=O)C3CN(C4c5ccc(Cl)cc5CCc5cccnc54)CCN3C(=O)OC(C)C)C2)cn1` (stereo not drawn) [41(A)] had a melting point of 117 to 120 °C.
